{
  "source": "patent US20130090471A1",
  "about": "“METHOD FOR DETECTING COMPOUNDS THAT MODULATE THE CHOLESTEROL METABOLISM” (priority 2010, published 2013)",
  "format_in_all_cases": "cell-based, Saccharomyces cerevisae",
  "key": {"[1]": {"system": "yIM126-pIM580-CYP27A1 yeast", "experiment": "Test for restoration of growth on a YPG agar containing syringomycin E inoculated with a cholesterol-producing strain", "conditions": "syringomycin E 250 ng/ml, 48 h to 72 h at 30° C.", "experimental": "The yIM126 yeasts containing the expression plasmids for DHCR24 with or without P450 are cultured in YNB medium, 2% glucose, adenine at 100 μg/ml for 48 h at 30° C. and then in Käppeli medium for 24 h at 30° C. as described above.\n(§1) The yeast suspensions are diluted to an optical density at 600 nm of 0.005 unit ( 1/200) in YNB medium in order to inoculate a YPG agar containing syringomycin E at a dose that is toxic for the strain, i.e. 160 ng/ml for yIM126 containing the pIM582 plasmid, or 250 ng/ml for the yIM126 strain containing the pIM580 plasmid.\nThe inoculation of the agar medium is carried out by flooding its surface and immediately suctioning off the excess liquid. Products of interest are deposited on the agar surface thus inoculated, and then dried. […] Similarly, this method makes it possible to identify activators of enzymes, such as cytochromes P450, for instance CYP27A1, which catabolize cholesterol.\nFIG. 7: Test for restoration of growth on a YPG agar containing syringomycin E inoculated with a cholesterol-producing strain.\nThe surface of a YPG agar medium containing syringomycin E at 250 ng/ml is inoculated with a covering of yIM126-pIM580-CYP27A1 yeast suspension. […]"}, "[2]": {"system": "yIM126 containing the pIM582 plasmid (without P450)", "experiment": "Growth of yeasts on YPG agar containing syringomycin E", "experimental": "(§2) This culture medium is a rich medium of YPG agar type (YPG complete medium: yeast extract (Difco) 10 g/L, bactopeptone (Difco) 20 g/L, glucose (Merck) 20 g/L) supplemented with syringomycin E toxin from Pseudomonas syringae B-301D (Sigma #S6946) from 150 to 250 ng/ml.\n(§3) The yIM126 yeast strains containing an expression vector for DHCR24 and cytochrome P450 such as pIM580, described previously, are cultured for 48 h with shaking at 30° C. in a YNB medium (yeast nitrogen base w/o amino acids (Difco) 6.7 g/L, glucose (Merck) 20 g/L) supplemented with 2% glucose and adenine at 100 μg/ml.\n(§4) The culture reaches an optical density at 600 nm of about 7 units. The cell pellet is harvested by centrifugation and transferred into an identical volume of Käppeli medium containing […], 2% glucose and 100 μg/ml of adenine, and shaken at 30° C. for 24 h, reaching an optical density at 600 nm of about 40 units.\n(§5) The cultures are diluted to 1 unit of optical density at 600 nm and then to 1/50 and then 25-fold dilutions in order to perform a drop test on YPG agars containing syringomycin E according to the methods known to those skilled in the art.\n(§6) The toxicity of this YPG medium containing syringomycin E depends on the amount of cholesterol available in the yeast, observed by GC/FID or GC/MS.\nas §1\n(§7) FIG. 6: Test for growth of various strains producing and/or catabolizing cholesterol on a YPG agar containing syringomycin E (SRG): Yeast culture dilutions deposited on a YPG agar without syringomycin E(6A) or with syringomycin E at 170 ng/ml (6B); Dilution OD at 600 nm from top to bottom: 0.02/0.0008/[…]."}, "[3]": {"system": "yIM126 strain containing the pIM580 plasmid (with CYP27A1)", "experiment": "Growth of yeasts on YPG agar containing syringomycin E", "experimental": "as §2, §3, §4, §5, §6, §1, §7"}, "[4]": {"conditions": "2 μl of product at 1 mM deposited"}, "[5]": {"conditions": "YPG agar, inoculated at OD 600 nm 0.005"}, "[6]": {"conditions": "syringomycin E at 170 ng/ml, 48 h to 72 h at 30° C."}, "[7]": {"conditions": "2 μl of product at 0.1 mg/ml deposited"}},
  "note": "Positions of bridges follow the written chain, without caps; N, C: chain ends. Non-standard residues stand in square brackets, D forms with d. Residues, ends and D or L forms follow the SMILES beside them. *: point of attachment. Asp(3S-OH) = N[C@H](C(=O)O)[C@H](O)C(=O)O; Thr(4-Cl) = N[C@H](C(=O)O)[C@H](O)CCl; X1 = CCCCCCCCC[C@@H](O)CC(=O)*; dDab = NCC[C@@H](N)C(=O)O; Dab = NCC[C@H](N)C(=O)O; Dhb = C/C=C(\\N)C(=O)O",
  "data": [
    {"smiles": "CCN(C/C=C\\c1ccc(C2CCCCC2)c(Cl)c1)C1CCCCC1", "note": "[SR31747]", "values": [
      {"measurement": "restoration of growth (yeast growth halos around the deposits) on medium which is initially toxic", "setting": "[1]; [4]", "result": "verified"}
    ]},
    {"smiles": "C/C=C1\\NC(=O)[C@H](Cc2ccccc2)NC(=O)[C@H](CCCN=C(N)N)NC(=O)[C@@H](CCN)NC(=O)[C@H](CCN)NC(=O)[C@@H](CO)NC(=O)[C@@H](NC(=O)C[C@H](O)CCCCCCCCC)COC(=O)[C@H]([C@H](O)CCl)NC(=O)[C@H]([C@H](O)C(=O)O)NC1=O", "note": "[syringomycin E] (X1-S[dS][Dab][dDab]RF[Dhb][Asp(3S-OH)][Thr(4-Cl)]; ester 1-C)", "values": [
      {"measurement": "dose that is toxic for the strain", "setting": "[2]; [5]", "result": 160, "unit": "ng/mL"},
      {"measurement": "growth of the yeasts in drop test", "setting": "[2]; [6]", "result": "not capable of growing"},
      {"measurement": "dose that is toxic for the strain", "setting": "[3]; [5]", "result": 250, "unit": "ng/mL"},
      {"measurement": "growth of the yeasts in drop test", "setting": "[3]; [6]", "result": "capable of growing"}
    ]},
    {"smiles": "C[C@@H](CO)CCC[C@@H](C)[C@H]1CC[C@H]2[C@@H]3CC=C4C[C@@H](O)CC[C@]4(C)[C@H]3CC[C@]12C", "note": "[27OH-cholesterol]", "values": [
      {"measurement": "area of protection with respect to the toxicity of the syringomycin E contained in the agar", "setting": "[1]; [7]", "result": "induces an area of protection"}
    ]},
    {"smiles": "Clc1ccccc1CNCC1CCC(CNCc2ccccc2Cl)CC1", "note": "(stereo not drawn) [AY9944]", "values": [
      {"measurement": "restoration of growth (yeast growth halos around the deposits) on medium which is initially toxic", "setting": "[1]; [4]", "result": "verified"}
    ]},
    {"smiles": "CCC(C)(C)c1ccc(CC(C)CN2C[C@@H](C)O[C@@H](C)C2)cc1", "note": "(stereo partly drawn) [amorolfine]", "values": [
      {"measurement": "restoration of growth (yeast growth halos around the deposits) on medium which is initially toxic", "setting": "[1]; [7]", "result": "verified"}
    ]},
    {"smiles": "CC(C)CCC[C@@H](C)[C@H]1CC[C@H]2[C@@H]3CC=C4C[C@@H](O)CC[C@]4(C)[C@H]3CC[C@]12C", "note": "[cholesterol]", "values": [
      {"measurement": "area of protection with respect to the toxicity of the syringomycin E contained in the agar", "setting": "[1]; [7]", "result": "induces an area of protection"}
    ]}
  ]
}
